This assay concerns β-amyloid production by 7W WT APP751 CHO cells. As to the kind of experiment: Screening of dihydropyridine compounds (Maybridge), Aβ1-40 and Aβ1-42 ELISA (Example 2). The note with it: 30 μM, 24 hours (FIGS. 5A-B). The format is cell-based, Chinese hamster. The method, then:
Dihydropyridine compounds were obtained from Maybridge (England). Each compound was dissolved in DMSO. 7W WT APP751 CHO cells overexpressing APP751 were plated into 96-well culture plates in 200 μL of culture medium. Each compound from the library was added to confluent cells to a final concentration of 30 μM. After 24 hours of treatment, culture medium was collected and dissolved 10-fold and 2-fold for measuring the level of Aβ1-40 and Aβ1-42, respectively. Aβ1-40 and Aβ1-42 were determined using commercially available ELISAs (Biosource, CA), following the recommendations of the manufacturer.
A general note: ELISA stands for enzyme-linked immunosorbent assay.

For `CCOC(=O)C1=C(C)NC(C)=C(C(=O)OCC)C1c1ccc(Br)cc1` [JFD 01209, diethyl 4-(4-bromophenyl)-2,6-dimethyl-1,4-dihydropyridine-3,5-dicarboxylate], the “concentration of Aβ1-40 compared to controls” value is reported as “significantly decreased”, the “concentration of Aβ1-42 compared to controls” value is recorded as “significantly decreased” and the “concentration of total β-amyloid (Aβ1-40+Aβ1-42) compared to controls” value is “significantly decreased”.

As for `O=C1CC(c2ccccc2)CC(=O)N1c1ccc(Oc2ccc(Cl)cc2)cc1` [PD 00463, 1-[4-(4-chlorophenoxy)phenyl]-4-phenyldihydropyridine-2,6(1H,3H)-dione], the “concentration of Aβ1-40 compared to controls” value is given as “significantly decreased”, the “concentration of Aβ1-42 compared to controls” value is “significantly decreased” and the “concentration of total β-amyloid (Aβ1-40+Aβ1-42) compared to controls” value is reported as “significantly decreased”.

Regarding `CCOC(=O)C1=C(C)NC(C)=C(C(=O)OCC)C1c1cccc([N+](=O)[O-])c1` [XBX 00343, diethyl 2,6-dimethyl-4-(3-nitrophenyl)-1,4-dihydropyridine-3,5-dicarboxylate], the “concentration of Aβ1-40 compared to controls” value is “significantly decreased” and the “concentration of total β-amyloid (Aβ1-40+Aβ1-42) compared to controls” value is “significantly decreased”.

With `CCOC(=O)C1=C(C)NC(C)=C(C(=O)OCC)C1c1ccc(-c2ccccc2C(F)(F)F)o1` [RJC 03405, diethyl 2,6-dimethyl-4-{5-[2-(trifluoromethyl)phenyl]-2-furyl}-1,4-dihydro-3,5-pyridinedicarboxylate], the “concentration of Aβ1-40 compared to controls” value is recorded as “significantly decreased” and the “concentration of total β-amyloid (Aβ1-40+Aβ1-42) compared to controls” value was “significantly decreased”.

Regarding `N#Cc1c(-c2cccs2)cc(-c2ccccc2)[nH]c1=O` [HTS 10306, 2-oxo-6-phenyl-4-(2-thienyl)-1,2-dihydro-3-pyridinecarbonitrile], the “concentration of Aβ1-40 compared to controls” value was “significantly decreased”, the “concentration of Aβ1-42 compared to controls” value is listed as “significantly decreased” and the “concentration of total β-amyloid (Aβ1-40+Aβ1-42) compared to controls” value is “significantly decreased”.

Consider `CCOC(=O)C1=C(C)NC(C)=C(C(=O)OCC)C1c1cccc(Cl)c1` [JFD 03274, diethyl 4-(3-chlorophenyl)-2,6-dimethyl-1,4-dihydropyridine-3,5-dicarboxylate], for which the “concentration of Aβ1-40 compared to controls” value is recorded as “significantly decreased” and the “concentration of total β-amyloid (Aβ1-40+Aβ1-42) compared to controls” value was “significantly decreased”.

With `CCOC(=O)C1=C(C)NC(C)=C(C(=O)OCC)C1c1ccc(Cl)cc1Cl` [RJC 03403, diethyl 4-(2,4-dichlorophenyl)-2,6-dimethyl-1,4-dihydro-3,5-pyridinedicarboxylate], the “concentration of Aβ1-40 compared to controls” value was “significantly decreased”, the “concentration of Aβ1-42 compared to controls” value is “significantly decreased” and the “concentration of total β-amyloid (Aβ1-40+Aβ1-42) compared to controls” value was “significantly decreased”.

As to `CCOC(=O)C1=C(C)NC(C)=C(C(=O)OCC)C1c1ccc(C)cc1` [JFD 03282, diethyl 2,6-dimethyl-4-(4-methylphenyl)-1,4-dihydropyridine-3,5-dicarboxylate], the “concentration of Aβ1-40 compared to controls” value is given as “significantly decreased”, the “concentration of Aβ1-42 compared to controls” value is reported as “significantly decreased” and the “concentration of total β-amyloid (Aβ1-40+Aβ1-42) compared to controls” value is given as “significantly decreased”.

Turning to `CCOC(=O)C1=C(C)NC(C)=C(C(=O)OCC)C1c1ccccc1Cl` [JFD 03305, diethyl 4-(2-chlorophenyl)-2,6-dimethyl-1,4-dihydropyridine-3,5-dicarboxylate], the “concentration of Aβ1-40 compared to controls” value is “significantly decreased”, the “concentration of Aβ1-42 compared to controls” value was “significantly decreased” and the “concentration of total β-amyloid (Aβ1-40+Aβ1-42) compared to controls” value is on record as “significantly decreased”.

With `O=C1C=C(c2ccccc2)CN(C2CCCCC2)C1=O` [HTS 01512, 1-cyclohexyl-5-phenyl-1,6-dihydro-2,3-pyridinedione], the “concentration of Aβ1-40 compared to controls” value is “significantly decreased”, the “concentration of Aβ1-42 compared to controls” value is “significantly decreased” and the “concentration of total β-amyloid (Aβ1-40+Aβ1-42) compared to controls” value is reported as “significantly decreased”.
